“And” between values parts separate entries of the source, which are not always exact repeats. Equal entries are not always repeated. “Also recorded” adds a separate entry of the source. Where two headings read alike, the source gives them in different places. Values belong to the compound of their own block, whether it stands above or below them.
Columns and labels:
SH-SY5Y cells [1] = assay: Compound toxicity at 48 h incubation without OGD; type: cell-based, human; settings: 8 μM
Experimental: (§1) For oxygen-glucose deprivation (OGD) studies, 40,000 SH-SY5Y cells were plated in each well of 96-well plates. After overnight incubation, cells were treated with 1 and 3 μM concentrations of drugs for 24 h prior to OGD, at the onset of OGD, and at the onset of reperfusion. The compounds’ toxicity at the 1, 5, and 8 μM concentrations was assessed at 48 h. Oxygen glucose deprivation was performed as follows. The medium was replaced with DMEM containing no glucose, and then the cells were transferred to a sealed hypoxic chamber with 5% CO2-95% N2 atmosphere for 2 h. After 2 h incubation, the cells were removed from the hypoxic chamber and resupplied with a regular growth media for reperfusion/recovery. After 24 h incubation, cell viability was quantified using an MTT (4,5-dimethylthiazol-2-yl)-2,5-diphenyltetrazolium bromide, Sigma) assay.

[2] = system: HIF1 ODD-luc reporter (intracellular HIF PHD), HIF1 ODD-luc/SH-SY5Y cell line; assay: HIF1 ODD-luc reporter assay; type: cell-based, human; settings: for Potency in HIF1 ODD-luc reporter assay (in words, comparative) / IC50: SH-SY5Y, 3 h incubation; for IC50: read-out: IC50 of HIF1 ODD-luc reporter activation; for Interference of free iron with reporter activation: cells loaded with ferrous sulfate 20 min before drug
Experimental: The reporter assay on the HIF1 ODD-luc/SH-SY5Y cell line was performed as described in [10]. Drugs were freshly prepared as 10 mM stock solutions in DMSO, and right before the experiment were diluted to 50×-fold to the final concentration in the well, so each well with 100 μL medium was inoculated with 2 μL of the drug solution. Cells were incubated for 3 h and then lysed and assayed for luciferase activity. To evaluate the effect of iron, the cells were loaded with the corresponding concentrations of ferrous sulfate in the medium for 20 min before the drug’s addition. All experiments were performed in triplicate. The fold activation with respect to the background luminescence in the presence 2 μL DMSO aliquot was plotted against drug concentrations. The results are shown as average ± SD.
The HIF1 ODD-luc reporter assay employs a cell line stably expressing a reporter vector providing the continuous production of an oxygen-dependent domain of HIF1α fused via its C-terminus to N-terminus of firefly luciferase. The steady-state level of the fusion protein depends on the ratio of the rates of its production (pcmv promoter) and degradation upon hydroxylation, binding to VHL and proteasomal degradation. […] Enzyme inhibition results in an immediate response in the form of luciferase fusion accumulation. The performance of the fusion reporter is equivalent to monitoring the actual fate of intracellular HIFs upon enzyme inhibition. […] However, both vadadustat and roxadustat worked in a very high micromolar range (IC50 above 30 μM). […] The use of high concentrations of the αKG mimetic drugs to overcome the competition from the intracellular αKG may result in targeting other αKG-dependent pathways that are unrelated to αKG-dependent dioxygenases, such as kynurenine-oxoglutarate transaminase and αKG dehydrogenase E1. In fact, DMOG is known to inhibit the αKG dehydrogenase complex and oxygen consumption by mitochondria. This plausible break in specificity could be a reason for concerns on the safety of HIF PHD inhibitor drugs in comparison with the use of recombinant EPO [17].

SH-SY5Y cell line = assay: Transcriptomic microarray analysis (Gene Chip Human Transcriptome Array 2.0); type: cell-based; settings: for Number of downregulated genes / Number of upregulated genes: 0.5 mM DMOG, 30 μM roxadustat, 2 μM oxyquinolines; for Downregulated genes in common with hypoxia / Upregulated genes in common with hypoxia: hypoxia 2 h + 5 h; for Suppression of ATF4 signaling pathway: heatmap
Experimental: Transcriptomic microanalysis was performed as described in [12]. The human neuroblastoma SH-SY5Y cell line was grown on DMEM/F12 (Paneco Ltd., Moscow, Russia) containing 10% FBS (Thermo Fisher Scientific Inc., Waltham, MA, USA), and the cells were plated in 6-well plates (TPP, Russia) at a cell/well density of 500,000 the day before the drug treatment. The drugs—2 μM oxyquinoline(s), 30 μM (roxadustat), and 0.5 mM DMOG—were added to the cells in triplicate, and the cells were incubated for 5 h. The control wells contained 4 μL DMSO. The hypoxic conditions were created by incubation in 1% O2, 5% CO2, and 94% N2 atmosphere for 2 h (the medium was incubated under the same conditions for 16 h before addition to the cells). After 2 h hypoxia, the cells were returned to the original incubation conditions in a CO2 incubator and kept for another 5 h. After incubation, the cells were lysed with the Qiazol reagent (Qiagen N.V., Venlo, The Netherlands). The RNA was isolated using the RNeasy Micro Kit (Qiagen); the qualitative and quantitative analysis of the RNA was performed as described earlier. The RNA integrity number (RIN) values for all the samples were above 9.5. All steps of the sample preparation, hybridization, washing, staining, and microchip scanning were performed as described before. The mRNA expression profile was analyzed using the Gene Chip Human Transcriptome Array 2.0 (Thermo Fisher Scientific Inc., Waltham, MA, USA). The CEL files obtained during microchip scanning were treated with the Transcriptome Analysis Console 2.0 application (Thermo Fisher Scientific-Affymetrix, Santa Clara, CA, USA). Unannotated probe sets were excluded from the analysis. The results obtained were statistically processed using the TAC 4.0 software (Thermo Fisher Scientific). The statistical reliability for the differences in the expression levels between the intact cells and cells treated with the studied compounds was evaluated using the monofactorial analysis of variance (ANOVA) with the Benjamini–Hochberg correction. The significance threshold was 0.05.

[3] = set-up: method as in PMID 20416509; settings: estimated; read-out: KD of iron chelation; cited from earlier work
SH-SY5Y cells [4] = assay: Oxygen-glucose deprivation (OGD) model, MTT viability; type: cell-based, human; settings: 24 h pretreatment
Experimental: as §1
The oxygen deprivation model (OGD) was performed using the human neuroblastoma SH-SY5Y cell line. […] The branched oxyquinoline drugs were added either 24 h before the onset of OGD, at the onset of ischemia induced by OGD insult, or with the reperfusion media at the end of OGD, as described in Methods and shown in Figure 6a.

[5] = 5 h treatment, 1.5-fold cut-off
[6] = 5 h treatment, 1.5-fold cut-off, listed as FG
[7] = 5 h treatment, 1.5-fold cut-off, listed as 570-0720

SMILES: Cc1ccc2ccc(C(Nc3ccccn3)c3ccc(C(C)C)cc3)c(O)c2n1 (stereo not shown) [compound 7]
Toxicity at prolonged incubation (SH-SY5Y cells [1]): least toxic

IC50 [2]: 500 µM
SMILES: COC(=O)CNC(=O)C(=O)OC [DMOG, dimethyl oxalylglycine, reference compound]
Potency in HIF1 ODD-luc reporter assay (in words, comparative) [2]: millimolar potency | Overlap of downregulated genes for the couple roxadustat and DMOG (SH-SY5Y cell line; 5 h treatment): 80% | Share of downregulated genes overlapping with hypoxia (SH-SY5Y cell line; 5 h treatment): ~50% | Share of upregulated genes overlapping with those induced by hypoxia (SH-SY5Y cell line; 5 h treatment): More than 30% | Downregulated genes in common with FG (roxadustat) (SH-SY5Y cell line; [5]): 160 genes | Upregulated genes in common with FG (roxadustat) (SH-SY5Y cell line; [5]): 476 genes | Number of downregulated genes (SH-SY5Y cell line; [5]): 200–260 genes and 204 genes | Number of upregulated genes (SH-SY5Y cell line; [5]): 600–700 genes and 608 genes | Downregulated genes in common with hypoxia (SH-SY5Y cell line; [5]): 104 genes | Upregulated genes in common with hypoxia (SH-SY5Y cell line; [5]): 279 genes | Suppression of ATF4 signaling pathway (SH-SY5Y cell line; 5 h treatment): weaker

SMILES: Cc1ccnc(NC(c2ccc(C(C)(C)C)cc2)c2cc(Cl)c3cccnc3c2O)c1 (stereo not shown) [5-chloro-neuradapt]
Potency in HIF1 ODD-luc reporter assay (in words, comparative) [2]: almost as active as the original compound

SMILES: Cc1cc(C2CCCCC2)n(O)c(=O)c1 [ciclopirox]
Kd [3]: 0.05 µM

IC50 ([2]; Homo sapiens, 3 h): > 30 µM
SMILES: O=C(O)CNC(=O)c1ncc(-c2cccc(Cl)c2)cc1O [vadadustat, reference compound]

IC50 ([2]; Homo sapiens, 3 h): 1 µM | IC50 [2]: < 1 µM
SMILES: Cc1ccnc(NC(c2ccc(C(C)(C)C)cc2)c2ccc3cccnc3c2O)c1 (stereo not shown) [4896-3212]
Potency in HIF1 ODD-luc reporter assay (in words, comparative) [2]: submicromolar IC50 values | Interference of free iron with reporter activation [2]: interference of free iron with the reporter activation

IC50 ([2]; Homo sapiens, 3 h): > 30 µM | IC50 ([2]; listed as Roxadustat): ~25 µM | IC50 [2]: 30 µM
SMILES: Cc1nc(C(=O)NCC(=O)O)c(O)c2ccc(Oc3ccccc3)cc12 [roxadustat, reference compound]
Interference of free iron with reporter activation [2]: not observed | Overlap of downregulated genes for the couple roxadustat and DMOG (SH-SY5Y cell line; 5 h treatment): 80% | Share of downregulated genes overlapping with hypoxia (SH-SY5Y cell line; 5 h treatment): ~50% | Share of upregulated genes overlapping with those induced by hypoxia (SH-SY5Y cell line; 5 h treatment): More than 30% | Number of downregulated genes (SH-SY5Y cell line; [5]): 200–260 genes | Number of upregulated genes (SH-SY5Y cell line; [5]): 600–700 genes | Number of downregulated genes (SH-SY5Y cell line; [6]): 209 genes | Number of upregulated genes (SH-SY5Y cell line; [6]): 714 genes | Downregulated genes in common with hypoxia (SH-SY5Y cell line; [5]): 96 genes | Upregulated genes in common with hypoxia (SH-SY5Y cell line; [5]): 261 genes | Suppression of ATF4 signaling pathway (SH-SY5Y cell line; 5 h treatment): weaker

IC50 ([2]; Homo sapiens, 3 h): 2 µM
SMILES: Cc1ccc2ccc(C(Nc3ccccn3)c3ccc(C(C)C)cc3)c(O)c2n1 (stereo not shown) [5704-0720]
Potency in HIF1 ODD-luc reporter assay (in words, comparative) [2]: ca. two-fold less potent | Reduction in number of genes overlapped with roxadustat in comparison to isopropyl-neuradapt (SH-SY5Y cell line; 2 μM, 5 h): ~20% | Downregulated genes in common with DMOG (SH-SY5Y cell line; [5]): 38 genes | Downregulated genes in common with FG (roxadustat) (SH-SY5Y cell line; [5]): 60 genes | Upregulated genes in common with DMOG (SH-SY5Y cell line; [5]): 126 genes | Upregulated genes in common with FG (roxadustat) (SH-SY5Y cell line; [5]): 195 genes | Number of downregulated genes (SH-SY5Y cell line; [5]): 200–260 genes | Number of upregulated genes (SH-SY5Y cell line; [5]): 600–700 genes | Number of downregulated genes (SH-SY5Y cell line; [7]): 259 genes | Number of upregulated genes (SH-SY5Y cell line; [7]): 600 genes | Downregulated genes in common with hypoxia (SH-SY5Y cell line; [5]): 17 genes | Upregulated genes in common with hypoxia (SH-SY5Y cell line; [5]): 86 genes | Suppression of ATF4 signaling pathway (SH-SY5Y cell line; 5 h treatment): no suppression; also recorded: inactive

SMILES: Oc1cccnc1NC(c1ccc(Cl)cc1)c1ccc2cccnc2c1O (stereo not shown) [adaptaquin, reference compound]
Neuroprotection in OGD (SH-SY5Y cells [4]; 1–3 μM): 20–30%

SMILES: Cc1ccnc(NC(c2ccc(C(C)(C)C)cc2)c2cc(Cl)c3cccnc3c2O)c1 (stereo not shown) [compound 8]
Toxicity at prolonged incubation (SH-SY5Y cells [1]): least toxic

IC50 ([2]; Homo sapiens, 3 h): 1 µM
SMILES: Cc1ccnc(NC(c2ccc(C(C)C)cc2)c2ccc3cccnc3c2O)c1 (stereo not shown) [4896-3249]
Potency in HIF1 ODD-luc reporter assay (in words, comparative) [2]: equally active | viability at 3 µM (SH-SY5Y cells [4]; Homo sapiens, SH-SY5Y, 3 μM, insult alone 70%, MTT after 24 h recovery, read-out: Cell viability after OGD): 90% | Downregulated genes in common with 570-0720 (SH-SY5Y cell line; [5]): 231 genes | Downregulated genes in common with DMOG (SH-SY5Y cell line; [5]): 52 genes | Downregulated genes in common with FG (roxadustat) (SH-SY5Y cell line; [5]): 73 genes | Upregulated genes in common with 570-0720 (SH-SY5Y cell line; [5]): 524 genes | Upregulated genes in common with DMOG (SH-SY5Y cell line; [5]): 188 genes | Upregulated genes in common with FG (roxadustat) (SH-SY5Y cell line; [5]): 257 genes | Number of downregulated genes (SH-SY5Y cell line; [5]): 386 genes | Number of upregulated genes (SH-SY5Y cell line; [5]): 1092 genes | Downregulated genes in common with hypoxia (SH-SY5Y cell line; [5]): 31 genes | Upregulated genes in common with hypoxia (SH-SY5Y cell line; [5]): 152 genes | Suppression of ATF4 signaling pathway (SH-SY5Y cell line; 5 h treatment): inhibits several pro-death pathways with ATF4 being one of them; also recorded: enhanced suppression

Reference: paper PMC8868400, “Structure–Activity Relationships and Transcriptomic Analysis of Hypoxia-Inducible Factor Prolyl Hydroxylase Inhibitors” (Antioxidants, 2022)
